Measured values published in ChEMBL document CHEMBL4725255, “Broad assessment of bioactivity of a collection of spiroindane pyrrolidines through "cell painting"” (Bioorg Med Chem, 2020).
Activity calls are given as the source filed them. The rule behind the calls is not given here.

System: U2OS
Test: Cytotoxicity against human U-2 OS cells assessed as change in cell morphology incubated for 24 hrs at […] measured after various levels of staining by micro XL microscopic-imaging analysis
Assay type: functional, cell-based

SMILES | Activity
COc1ccc(-c2ccc3c(c2)C2(CCCN2)C(C#N)C3)cc1 (stereo not given) | inactive
N#C[C@@H]1C[C@H]2[C@H]3[C@@H]1C=C[C@]32C1=NCCC1 | Active
COCCOC(=O)N1CCCC12CCc1ccc(C#CCO)cc12 (stereo not given) | Active
N#CC1Cc2ccccc2C12CCCN2 (stereo in doubt; 1) | Active
N#CC1Cc2ccccc2C12CCCN2 (stereo in doubt; 14) | inactive
